{"source": "patent US8080571B2", "about": "“Tricyclic angiotensin II agonists” (Vicore Pharma AB, priority 2005, dated 2011)", "tested_on": "duodenal mucosa", "experiment": "Test C: duodenal mucosal alkaline secretion assay", "assay_type": "in vivo, rat", "settings": "co-administration of the AT2 receptor antagonist with title compounds", "from_the_text": "Duodenal Mucosal Alkaline Secretion Assay\nCompounds were exposed to the duodenal mucosa in barbiturate-anaesthetised rats prepared for in situ titration of duodenal mucosal alkaline secretion, according to the methodology described by Flemström et al in Am. J. Physiol. (1982) 243, G348.", "data": [{"smiles": "Cc1cc(Cn2cnc3c2C[C@@H](C(=O)O)N(C(=O)C(c2ccccc2)c2ccccc2)C3)ccc1N(C)C", "note": "[PD123319]", "values": [{"measurement": "effect on the stimulation of mucosal alkalisation by the title compounds", "result": "blocked"}]}]}
